{"source": "patent US20230082989A1", "about": "“DEVICES AND METHODS FOR TREATING CANCER AND CARDIAC WASTING” (Nazzano Devices Limited, priority 2020, published 2023)", "format_in_all_cases": "in vivo, human", "key": {"[1]": {"tested_on": "patients with advanced cancer", "assay": "Quality of life by Kansas City Cardiomyopathy Questionnaire (KCCQ), ivabradine study", "source_text": "N=4, LVEF>50%. A 5 unit increase was considered a clinically meaningful change. […] The KCCQ score range is 0-100, with higher scores indicating better QoL, and improvements of ≥5 indicated clinically important changes.\n(§1) In this study 4 cancer patients with no known heart failure and with normal left ventricular function (LEF>50%) were studied. They all had histologically confirmed diagnoses of cancer (see table 1), and all suffered poor quality of life, with three showing a Karnofksy performance score of 70-80% (indicating an inability to carry on normal activity or to do active work) and one showing a Karnofksy performance score of 50-60% (indicating a need for considerable assistance and frequent medical care). […] All were given Ivabradine at a starting dose of 5 mg twice a day. Heart rate was reduced in all patients from 104.5±10.4 bpm to 77.0±10.9 bpm. […] The questionnaires are the Minnesota Living with Heart Failure Questionnaire (MLHFQ) (see FIG. 15) and the Kansas City Cardiomyopathy Questionnaire (KCCQ) (see FIG. 14). In the […] indicate a better quality of life and in the MLWHFQ lower scores indicate a better quality of life. The two figures show the clinically important improvement in symptoms and quality of life achieved in these patient by the use of the heart failure drug Ivabradine."}, "[2]": {"tested_on": "patients with advanced cancer", "assay": "Quality of life by Minnesota Living with Heart Failure Questionnaire (MLHFQ), ivabradine study", "conditions": "N=4, LVEF>50%; total score range 0-105, lower = better QoL, <24 good QoL", "source_text": "N=4, LVEF>50%. […] MLHFQ has a total score range of 0-105. A lower score indicated a better QoL, with a score of <24 indicating good QoL, scores from 24 to […] indicating moderately impaired QoL, scores >45 indicating low QoL.\nas §1"}, "[3]": {"tested_on": "patients with advanced cancer", "assay": "Prospective study of ivabradine in advanced cancer patients: heart rate", "conditions": "4 cancer patients, no known heart failure, LVEF>50%, heart rate >70 bpm; Ivabradine starting dose 5 mg twice a day; reduced from 104.5±10.4 bpm", "source_text": "In this study an effect of a use of a heart drug in advanced cancer was studied. In some cases, a heart drug can comprise ivabradine. In some cases, ivabradine can be a selective antagonist of myocardial If (funny) channels. […] In some cases, ivabradine can provide pure heart rate reduction, reducing a diastolic depolarization slope, without altering other cardiac and hemodynamic parameters. In some cases, ivabradine can be effective for a treatment of an ischemic heart disease. In some cases, ivabradine can reduce episodes of both symptomatic angina pectoris and myocardial ischemia, and in heart failure where it can reduce mortality and morbidity. In some cases, it may only be approved or recommended for treatment of these two conditions. In some cases, ivabradine may have never been recommended for a treatment of a cancer patient. Disclosed herein in some embodiments, are methods in which ivabradine can be administered for a treatment of a cancer patient.\nIn this study 4 cancer patients with no known heart failure and with normal left ventricular function (LEF>50%) were studied. […]"}}, "data": [{"smiles": "COc1cc2c(cc1OC)CC(=O)N(CCCN(C)C[C@H]1Cc3cc(OC)c(OC)cc31)CC2", "note": "[Ivabradine]", "values": [{"measurement": "Symptoms (breathlessness, fatigue) by MLHFQ and KCCQ symptom scores", "setting": "[1]; 4 cancer patients, addition of ivabradine 5 mg twice a day starting dose", "result": "importantly improved symptoms"}, {"measurement": "KCCQ score improvement from baseline to follow up", "setting": "[1]; N=4, LVEF>50%, score range 0-100, higher = better QoL, improvement ≥5 clinically important", "result": "≥ 5"}, {"measurement": "MLHFQ score, baseline to follow-up", "setting": "[2]", "result": "improvements from baseline to follow-up, with good QoL at follow-up"}, {"measurement": "Heart rate on ivabradine", "setting": "[3]", "result": "77.0±10.9", "unit": "bpm"}]}]}
